From US11007183B2, “Cancer treatments using combinations of PI3K/Akt pathway and ERK inhibitors” (BIOMED VALLEY DISCOVERIES, INC., priority 2013, dated 2021)
Entries after “also recorded” stand apart in the source; their conditions may differ.

Experiments:
[1] = tested on: HCT116 human colorectal carcinoma xenograft; experiment: HCT116 xenograft tumor growth delay (TGD) study; format: in vivo, mice
Procedure: Female athymic nude mice (Crl:NU(Ncr)-Foxn1^nu, Charles River) were eight weeks old with a body weight (BW) range of 14.6 to 25.7 grams on Day 1 of the study. The animals were fed ad libitum water (reverse osmosis, 1 ppm Cl), and NIH 31 Modified and Irradiated Lab Diet® consisting of 18.0% crude protein, 5.0% crude fat, and 5.0% crude fiber. The mice were housed on irradiated Enrich-O'Cobs™ Laboratory Animal Bedding in static microisolators on a 12-hour light cycle at 20-22° C. (68-72° F.) and 40-60% humidity.
HCT116 human colon carcinoma cells were cultured in RPMI-1640 medium supplemented with 10% fetal bovine serum, 2 mM glutamine, 100 units/mL penicillin G sodium, 100 μg/mL streptomycin sulfate, and 25 μg/mL gentamicin. The tumor cells were grown in tissue culture flasks in a humidified incubator at 37° C., in an atmosphere of 5% CO2 and 95% air.
The HCT116 cells used for implantation were harvested during exponential growth and resuspended in 50% Matrigel (BD Biosciences): 50% phosphate buffered saline at a concentration of 2.5×10^7 cells/mL. On the day of tumor implant, each test mouse was injected subcutaneously in the right flank with 5×10^6 cells (0.2 mL cell suspension), and tumor growth was monitored as the average size approached the target range of 100 to 150 mm^3. Tumors were measured in two dimensions using calipers, and volume was calculated using the formula: Tumor Volume (mm^3)=(w^2×l)/2 where w=width and l=length, in mm, of the tumor. Tumor weight may be estimated with the assumption that 1 mg is equivalent to 1 mm^3 of tumor volume.
Ten days after tumor implantation, designated as Day 1 of the study, the animals were sorted into nine groups (Groups 1-9) each consisting of fifteen mice and one group (Group 10) consisting of ten mice.
BVD-523 doses were prepared by suspending the required amount of BVD-523 powder in 1% carboxymethyl cellulose (CMC) in deionized water (“Vehicle”). A 10 mg/mL BVD-523 stock was prepared, and was used to dose the 100 mg/kg BVD-523 group. Aliquots of the stock were diluted with the vehicle to a concentration of 5.0 mg/mL, which provided a 50 mg/kg BVD-523 dosage in a dosing volume of 10 mL/kg. The BVD-523 doses were stored at 4° C. for up to one week. The 1% CMC vehicle was used to dose the control group.
Paclitaxel (Lot CP2N10007) was purchased as a dry powder from Phyton Biotech, LLC (Fort Worth, Tex.). A paclitaxel stock solution (30 mg/mL) in 50% ethanol: 50% Cremophor EL was prepared and stored at room temperature protected from light during the dosing period. On each day of dosing, an aliquot of the paclitaxel stock was diluted with 5% dextrose in water (D5W) to yield a 3.0 mg/mL paclitaxel dosing solution in a vehicle consisting of 5% ethanol: 5% Cremophor EL: 90% D5W.
On Day 1 of the study, mice were sorted into nine groups (Group 1-9) each consisting of fifteen mice and one group (Group 10) consisting of ten mice, and dosing was initiated according to the treatment plan summarized in Table 4 below. All doses were given by oral gavage (p.o.) except paclitaxel, which was given i.v. For each agent, the dosing volume of 10 mL/kg (0.2 mL per 20 grams of BW) was scaled to the BW of the individual animal. […] For bid dosing, dosing was initiated in the afternoon of Day 1, so that one dose was given on the first day (“first day 1 dose”).
Group 1 received 1% CMC vehicle p.o. bid to end, and served as the control group for calculation of % TGD. Group 10 received paclitaxel i.v. at 30 mg/kg once every other day (qod) for five doses (qod×5), and served as the positive control for the model.
Groups 4 and 5 received 50 and 100 mg/kg BVD-523, respectively, p.o. bid to end.

[2] = Toxicity (body weight, deaths, clinical signs) in the HCT116 xenograft study; format: in vivo, mice; conditions: for Deaths NTR / Deaths TR: po, 45 days
Procedure: Animals were weighed daily on Days 1-5, then twice per week until completion of the study. The mice were observed frequently for overt signs of any adverse, TR side effects, and clinical signs were recorded when observed. Individual BW loss was monitored as per protocol, and any animal whose weight exceeded the limits for acceptable BW loss was euthanized. Group mean BW loss also was monitored as per protocol. Dosing was to be suspended in any group that exceeded the limits for acceptable mean BW loss. If mean BW recovered, then dosing was to be resumed in that group, but at a lower dosage or less frequent dosing schedule. Acceptable toxicity for the maximum tolerated dose (MTD) was defined as a group mean BW loss of less than 20% during the study and not more than 10% TR deaths. A death was classified as TR if attributable to treatment side effects as evidenced by clinical signs and/or necropsy, or may also be classified as TR if due to unknown causes during the dosing period or within 14 days of the last dose. A death was classified as NTR if there was no evidence that death was related to treatment side effects. NTR deaths may be further characterized based on cause of death. A death was classified as NTRa if it resulted from an accident or human error. […] A death was classified as NTRu if the cause of death was unknown and there was no available evidence of death related to treatment side effects, metastasis, accident or human error, although death due to treatment side effects cannot be excluded.

[3] = Group 1 (vehicle) vs Group 4 (BVD-523 50 mg/kg po bid to end)
[4] = Group 4: BVD-523 50 mg/kg po bid to end
[5] = Group 5: BVD-523 100 mg/kg po bid to end

CC(C)Nc1cc(-c2c[nH]c(C(=O)N[C@H](CO)c3cccc(Cl)c3)c2)c(Cl)cn1 [BVD-523]
Overall activity in the HCT116 xenograft model ([1]; BVD-523 50 mg/kg p.o. bid to end): active
Are survival curves diff.? [1, 3]: Yes
Hazard Ratio [1, 3]: 4.813
Logrank test Chi square [1, 3]: 21.86
Median survival Ratio (Column A/Column B) [1, 3]: 0.7517
% TGD [1, 4]: 33%
MTV (n): number of animals on D 45 (45-day survivors) [1, 4]: (5)
MTV D 45 (median tumor volume) [1, 4]: 1666 mm^3
Median TTE [1, 4]: 43.5 days
Regressions CR [1, 4]: 0
Regressions PR [1, 4]: 0
Regressions TFS [1, 4]: 0
T − C [1, 4]: 10.8 days
% TGD [1, 5]: 38%
MTV (n): number of animals on D 45 (45-day survivors) [1, 5]: (11)
MTV D 45 (median tumor volume) [1, 5]: 405 mm^3
Median TTE [1, 5]: 45.0 days
Regressions CR [1, 5]: 0
Regressions PR [1, 5]: 0
Regressions TFS [1, 5]: 0
T − C [1, 5]: 12.3 days
Tolerability relative to the MTD ([2]; Group 5: BVD-523 100 mg/kg p.o. bid to end, 100 mg/kg): above the MTD; also recorded: above the maximum tolerated dose
Adverse clinical signs ([2]; mouse, in vivo, 50 mg/kg): no noteworthy adverse clinical signs
Deaths NTR ([2]; mouse, in vivo, 50 mg/kg): 0
Deaths TR ([2]; mouse, in vivo, 50 mg/kg): 0
Deaths NTR ([2]; mouse, in vivo, 100 mg/kg): 0
Deaths TR ([2]; mouse, in vivo, 100 mg/kg): 4
